Measured values: patent US12403141B2, “Deuterated MK2 pathway inhibitors and methods of using the same” (ACLARIS THERAPEUTICS, INC., priority 2019, dated 2025)
Where two headings read alike, the source gives them in different places.

Experiment: IV pharmacokinetics in male SD rats
Type: in vivo, rat
Settings: for clearance: male, Sprague-Dawley, rat, plasma, iv
Description: Pharmacokinetic parameters of some examples were evaluated in male Sprague Dawley (SD) rats after intravenous (IV) and oral (PO) dosing. Male SD rats (5-6 weeks of age) were fasted for 12 hours before administration of the compound of interest. Animals were allowed access to food 2 h after dosing and water was given ad libitum. Except for the compound of Example 13, pharmacokinetic experiments comparing deuterium containing and non-deuterium containing compounds were performed at the same time using the same cohort of animals. The pharmacokinetic properties of the compound of Example 13 were evaluated separately and compared to previously generated data.
For IV dosing, a 0.5 mg/mL solution of the test compound was prepared in a vehicle consisting of 5% DMSO, 5% Cremophore, 90% normal saline. For a 1 mpk dose, 2 mL/kg of this dosing vehicle was administered to each rat by bolus injection into the tail vein. For lower doses, the dosing solution was diluted with the appropriate amount of vehicle. Example 3 was evaluated at 3 mpk by preparing a 1.5 mg/mL solution in the same vehicle and dosing 2 mL/kg. Blood samples from each animal was collected in di-sodium EDTA coated containers at 0.12, 0.25, 0.5, 1.0, 2.0, 4.0, 8.0 and 24.0 hours after dosing. Plasma was separated from the blood samples within 15 minutes following collection and stored at −20±5° C. before analysis.
A standard curve was generated from a stock solution of the test compound with known concentration in methanol. Working solutions having known concentrations ranging from 5-20,000 ng/mL were prepared from the stock solution by dilution with methanol:water (80:20 v/v). 5 uL of the working solutions were added to 45 uL of blank rat plasma to provide standard samples for analysis.
Plasma samples collected from rats after dosing were allowed to reach room temperature. A 50 uL aliquot of each plasma sample and the standard curve plasma samples were treated with 200 uL of acetonitrile containing an internal standard (100 ng/mL; warfarin/diclofenac) and mixed well. The samples were vortexed for 5 minutes followed by centrifugation for 5 minutes at 14000 rpm at 4° C. The supernatant (10 uL) was analyzed by LC-MS/MS (LC: Shimadzu SIL HTc, MS: MDS Sciex API-5500 & 4000 using 75%/25% acetonitrile/0.2% formic acid in Milli-Q water, flow rate: 1.0 mL/min, run time 3 minutes, Atlantis dC18(50×4.6 mm, 3 um; Waters®)) and the concentrations of the test compound in the plasma samples collected from rats at each time point were determined by comparison to the standard curve samples.
Pharmacokinetic parameters were calculated from the plasma concentrations at each time point using Phoenix WinNonlin (Version 7.0) by the non-compartmental analysis (NCA) method. Clearance values are reported as mL/min/kg. AUC values are reported as ng·h/mL.

[1] = 0.1 mg/kg, IV 0.1 mpk, ± one standard deviation, read-out: IV clearance 0.1 mpk
[2] = 1 mg/kg, IV 1 mpk, ± one standard deviation, read-out: IV clearance 1 mpk
[3] = 3 mg/kg, IV 3 mpk, ± one standard deviation, read-out: IV clearance 3 mpk
[4] = IV 0.1 mpk, ± one standard deviation

Compound | clearance [1] [mL/min/kg] | clearance [2] [mL/min/kg] | further results
[2H]C([2H])(Oc1cc(C)n(-c2cc(-c3ccnc(C(C)(C)O)n3)ncc2C)c(=O)c1Cl)c1cccc(C(F)(F)F)c1 (single isomer, unassigned) [Example 7-D2, 3-Chloro-2′-(2-(2-hydroxypropan-2-yl)pyrimidin-4-yl)-5′,6-dimethyl-4-((3-(trifluoromethyl)phenyl)methoxy-d2)-2H-[1,4′-bipyridin]-2-one] | 4.9 ± 0.5 | 6 ± 1 | 
[2H]C([2H])(Oc1cc(C)n(-c2cc(-c3ccnc(C(C)(C)O)n3)ncc2C)c(=O)c1Cl)c1ccn(C)n1 (single isomer, unassigned) [Example 3-D2, 3-Chloro-2′-(2-(2-hydroxypropan-2-yl)pyrimidin-4-yl)-5′,6-dimethyl-4-((1-methyl-1H-pyrazol-3-yl)methoxy-d2)-2H-[1,4′-bipyridin]-2-one] | 12 ± 3 | 13 ± 2 | clearance [3]: 9 ± 1 mL/min/kg
Cc1cnc(-c2ccnc(C(C)(C)O)n2)cc1-n1c(C)cc(OCc2ccccc2)c(Cl)c1=O [Example 5-H2, 3-chloro-2′-(2-(2-hydroxypropan-2-yl)pyrimidin-4-yl)-5′,6-dimethyl-4-(phenylmethoxy)-2H-[1,4′-bipyridin]-2-one] | 16 ± 2 | 15 ± 2 | 
COc1cccc(COc2cc(C)n(-c3cc(-c4ccnc(C(C)(C)O)n4)ncc3C)c(=O)c2Cl)c1 [Example 9-H2, 3-chloro-2′-(2-(2-hydroxypropan-2-yl)pyrimidin-4-yl)-4-((3-methoxyphenyl)methoxy)-5′,6-dimethyl-2H-[1,4′-bipyridin]-2-one] | 16 ± 3 | 12 ± 2 | 
[2H]C([2H])(Oc1cc(C)n(-c2cc(-c3ccnc(C(C)(C)O)n3)ncc2C)c(=O)c1Cl)c1cccc(OC)c1 (single isomer, unassigned) [Example 9-D2, 3-Chloro-2′-(2-(2-hydroxypropan-2-yl)pyrimidin-4-yl)-4-((3-methoxyphenyl)methoxy-d2)-5′,6-dimethyl-2H-[1,4′-bipyridin]-2-one] | 17 ± 3 | 18 ± 2 | 
[2H]C([2H])(Oc1cc(C)n(-c2cc(-c3ccnc(C(C)(C)O)n3)ncc2C)c(=O)c1Cl)c1ccc(F)cc1F (single isomer, unassigned) [Example 11-H2, 3-chloro-4-((2,4-difluorophenyl)methoxy-d2)-2′-(2-(2-hydroxypropan-2-yl)pyrimidin-4-yl)-5′,6-dimethyl-2H-[1,4′-bipyridin]-2-one] |  |  | dose dependence of clearance (IV 0.1 and 1 mpk): strong dose dependence; IV clearance 0.1 mpk [4]: 40 ± 4 mL/min/kg; IV clearance 1 mpk (IV 1 mpk, ± one standard deviation): 22 ± 2 mL/min/kg
[2H]C([2H])(Oc1cc(C)n(-c2cc(-c3ccnc(C(C)(C)O)n3)ncc2C)c(=O)c1Cl)c1ccccc1 (single isomer, unassigned) [Example 5-D2, 3-Chloro-2′-(2-(2-hydroxypropan-2-yl)pyrimidin-4-yl)-5′,6-dimethyl-4-(phenylmethoxy-d2)-2H-[1,4′-bipyridin]-2-one] | 18 ± 1 | 13 ± 2 | 
[2H]C([2H])(Oc1cc(C)n(-c2cc(-c3ccnc(C(C)(C)O)n3)ncc2C)c(=O)c1Cl)c1ccc(F)cc1F (single isomer, unassigned) [Example 11-D2, 3-Chloro-4-((2,4-difluorophenyl)methoxy-d2)-2′-(2-(2-hydroxypropan-2-yl)pyrimidin-4-yl)-5′,6-dimethyl-2H-[1,4′-bipyridin]-2-one] |  | 25 ± 3 | IV clearance 0.1 mpk [4]: 16 ± 5, mL/min/kg
Cc1cnc(-c2ccnc(C(C)(C)O)n2)cc1-n1c(C)cc(OCc2ccn(C)n2)c(Cl)c1=O [Example 3-H2, 3-chloro-2′-(2-(2-hydroxypropan-2-yl)pyrimidin-4-yl)-5′,6-dimethyl-4-((1-methyl-1H-pyrazol-3-yl)methoxy)-2H-[1,4′-bipyridin]-2-one] | 13 ± 3 | 9 ± 2 | clearance [3]: 8 ± 1 mL/min/kg
[2H]C([2H])([2H])C(O)(c1nccc(-c2cc(-n3c(C)cc(OCc4ncc(F)cc4F)c(Cl)c3=O)c(C)cn2)n1)C([2H])([2H])[2H] (single isomer, unassigned) [Example 13-D6, 3-Chloro-4-((3,5-difluoropyridin-2-yl)methoxy)-2′-(2-(2-hydroxypropan-2-yl-1,1,1,3,3,3-d6)pyrimidin-4-yl)-5′,6-dimethyl-2H-[1,4′-bipyridin]-2-one] |  | 25 ± 7 | effect of deuterium substitution on clearance (IV, versus non-deuterated comparator Example 1-H2): did not result in a statistically significant reduction in clearance
Cc1cnc(-c2ccnc(C(C)(C)O)n2)cc1-n1c(C)cc(OCc2cccc(C(F)(F)F)c2)c(Cl)c1=O [Example 7-H2, 3-chloro-2′-(2-(2-hydroxypropan-2-yl)pyrimidin-4-yl)-5′,6-dimethyl-4-((3-(trifluoromethyl)phenyl)methoxy)-2H-[1,4′-bipyridin]-2-one] | 7 ± 4 | 3.1 ± 0.3 | 
